Test results reported in patent US7247650B2, “Macrolides and methods for producing same” (Wyeth, priority 2004, dated 2007).

Tests used:
Format in all cases: cell-based, rat
[1] = test system: cultured dopaminergic neurons; test: High-affinity 3H-dopamine uptake after MPP+ induced toxicity
Procedure: Mesencephalic dopaminergic neuron cultures were prepared as previously described in Pong et al., J Neurochem. 69: 986–994 (1997). Embryonic day 15 (E15) rat fetuses were collected and dissected in ice-cold phosphate-buffered saline (PBS). The ventral piece of tissue compromising the mesencephalic dopaminergic region was dissected out. Dissected pieces of tissue were pooled together and transferred to an enzymatic dissociation medium containing 20 IU/ml papain in Earle's balanced salt solution (Worthington Biochemical, Freehold, N.J., U.S.A.) and incubated for 60 minutes at 37° C. After enzymatic dissociation, the papain solution was aspirated and the tissue mechanically triturated with a fire-polished glass Pasteur pipette in complete medium [equal volumes of minimum essential medium (MEM) and F-12 nutrient mixture (Gibco BRL) supplemented with 0.1 mg/ml apotransferrin and 2.5 μg/ml insulin] containing 2,000 IU/ml DNase and 10 mg/ml ovomucoid protease inhibitor.
For dopamine uptake experiments, single-cell suspensions in complete media were seeded on poly-L-ornithine and laminin coated 24-well plates. The cultures were maintained for seven days prior to experimentation. Cultures were pretreated with various concentrations of the compound of formula (I) (washed with PBS and diluted with media to concentrations of 1 nM to 1000 nM) for 24 hours, then exposed to 10 μM the neurotoxin 1-methyl-4-phenylpyridinium (MPP^+) for 1 hour to assess the neuroprotective effect of the compound of formula (I) in cell culture. Following the 1 hour incubation, media was exchanged three times and fresh compound was added for an additional 48 hours.
More particularly, after 48 hours growth of mesencephalic dopaminergic neuron cultures following MPP^+ exposure, high-affinity ^3H-dopamine uptake was performed using a modified method described by Prochiantz et al., Nature 293: 570–572 (1981). Cultures were washed with pre-warmed phosphate-buffered saline (PBS) containing 5.6 mM glucose and 1 mM ascorbic acid. Cultures were then incubated for 15 minutes at 37° C. with 50 nM ^3H-dopamine (31 Ci/mmol, Du Pont-NEN, Wilmington, Del., U.S.A.). The cultures were washed twice with buffer and lysed with 0.5 N NaOH. The lysate was transferred to a scintillation vial containing Ultima Gold scintillation cocktail and radioactivity was determined with a liquid scintillation counter. Alternatively, culture lysates can be washed twice with buffer, incubated for 2 hours at room temperature with Optiphase Supermix scintillation cocktail (Wallac Scintillation Products, Gaithersburg, Md., USA), and radioactivity measured with a liquid scintillation counter.

[2] = test system: cultured cortical neurons; test: Neurofilament content in cultured cortical neurons
Procedure: Dissociated cortical neuron cultures were prepared as previously described [Pong et al., Exp Neurol. 2001 September; 171(1):84–97 (2001)]. Briefly, embryonic day 15 rat fetuses were collected and dissected in ice-cold PBS. Dissected cortices were pooled together and transferred to an enzymatic dissociation medium containing papain. After 30 min, the tissue was mechanically triturated with a fire-polished glass Pasteur pipette. Single-cell suspensions in complete media were seeded on poly-L-ornithine and laminin coated 96-well plates. 24 hours later, cultures were treated with various concentrations of compound of formula (I) for 72 hours. The cultures were then fixed and stained with a neurofilament primary antibody and a peroxidase-tagged secondary antibody. A peroxidase substrate (K-Blue Max) was added and the colorimetric change was measure on a colorimetric plate reader.

[3] = test system: cultured cortical neurons; test: Neurite outgrowth (total neurite length per cell) in cultured cortical neurons; parameters: unit of the concentration uncertain; conditions: 72 hours
Procedure: Dissociated cortical neuron cultures were prepared as previously described (Pong et al., cited above, 2001). Briefly, embryonic day 15 rat fetuses were collected and dissected in ice-cold PBS. Dissected cortices were pooled together and transferred to an enzymatic dissociation medium containing papain. After 30 minutes, the tissue was mechanically triturated with a fire-polished glass Pasteur pipette. Single-cell suspensions in complete media were seeded on poly-L-ornithine and laminin coated 96-well plates. After 24 hours, cultures were treated with various concentrations of the compound of formula I for 72 hours. The cultures were then fixed and stained with an anti-tubulin primary antibody (TUJ-1) and a fluorescent-tagged secondary antibody. Neurite outgrowth was determined by using the Enhanced Neurite Outgrowth (ENO) algorithm with the Cellomics ArrayScan and expressed as total neurite length per cell.

[4] = test system: cultured dorsal root ganglia; test: Neurite outgrowth (total neurite length per cell) in cultured dorsal root ganglia; parameters: unit of the concentration uncertain; conditions: 72 hours
Procedure: Dissociated dorsal root ganglia cultures were prepared as previously described [A. Wood et al., “Stimulation of neurite outgrowth by immunophilin ligands: quantitative analysis by Cellomics Array scan” Society for Neuroscience (2004), abstract 104.3] Briefly, postnatal day 3–5 rat pups were euthanized. The spinal columns were removed and individual dorsal root ganglia (DRG) were dissected out. Dissected DRG were pooled together and transferred to an enzymatic dissociation medium containing papain. After 60 minutes, the tissue was mechanically triturated with a fire-polished glass Pasteur pipette. Single-cell suspensions in complete media were seeded on poly-L-ornithine and laminin coated 96-well plates. After 24 hours, cultures were treated with various concentrations of the compound of formula I for 72 hours. The cultures were then fixed and stained with an anti-tubulin primary antibody (TUJ-1) and a fluorescent-tagged secondary antibody. Neurite outgrowth was determined by using the Enhanced Neurite Outgrowth (ENO) algorithm with the Cellomics ArrayScan and expressed as total neurite length per cell.

For `CC/C1=C\CC(/C(C)=C/C(C)C(C)O)OC(=O)C2CCCN2C(=O)C(=O)C2(O)OC(CCC2C)CC(O)C(C)C(O)CC(O)CC(O)/C(C)=C/C(C)CC(C)C1O` (stereo not shown) [Compound (I), prolylmeridamycin], the “3H-DOPAMINE UPTAKE (% UNTREATED CONTROL)” value ([1]; 1 nM compound, 24 h pretreatment, 10 μM MPP+ 1 hour, 48 h after) was 45% UNTREATED CONTROL, the “3H-DOPAMINE UPTAKE (% UNTREATED CONTROL)” value ([1]; 10 nM compound, 24 h pretreatment, 10 μM MPP+ 1 hour, 48 h after) was 52% UNTREATED CONTROL and the “3H-DOPAMINE UPTAKE (% UNTREATED CONTROL)” value ([1]; 100 nM compound, 24 h pretreatment, 10 μM MPP+ 1 hour, 48 h after) was 61% UNTREATED CONTROL. For the same molecule, the “3H-DOPAMINE UPTAKE (% UNTREATED CONTROL)” value ([1]; 1000 nM compound, 24 h pretreatment, 10 μM MPP+ 1 hour, 48 h after) was 72% UNTREATED CONTROL, the EC50 ([1]; Rattus norvegicus, Neuron, relative to maximum protection (84% uptake) afforded by 10 ng/mL GDNF, read-out: EC50, neuroprotection against MPP+-induced neurotoxicity) was 110 nM and the “potency compared with meridamycin” value ([1]; similar study with meridamycin) was “more potent”. The “NEUROFILAMENT CONTENT (FOLD-INCREASE ABOVE UNTREATED CONTROL)” value ([2]; 10 nM, 72 hours) was 1.54 FOLD-INCREASE ABOVE UNTREATED CONTROL, the “NEUROFILAMENT CONTENT (FOLD-INCREASE ABOVE UNTREATED CONTROL)” value ([2]; 100 nM, 72 hours) was 2.22 FOLD-INCREASE ABOVE UNTREATED CONTROL and the “NEUROFILAMENT CONTENT (FOLD-INCREASE ABOVE UNTREATED CONTROL)” value ([2]; 1 μM, 72 hours) was 2.34 FOLD-INCREASE ABOVE UNTREATED CONTROL. The “NEUROFILAMENT CONTENT (FOLD-INCREASE ABOVE UNTREATED CONTROL)” value ([2]; 10 μM, 72 hours) was 2.26 FOLD-INCREASE ABOVE UNTREATED CONTROL, the EC50 ([2]; Rattus norvegicus, Cortical neurone, 72 hours, neurofilament content, read-out: EC50, increased neuronal survival in cultured cortical neurons) was 21 nM and the “potency compared with meridamycin” value ([2]; similar study with meridamycin) was “more potent”. The “Total Neurite Length (% Above Control)” value ([3]; 10 nM) was 30% Above Control, the “Total Neurite Length (% Above Control)” value ([3]; 100 nM) was 51% Above Control and the “Total Neurite Length (% Above Control)” value ([3]; 1 (unit uncertain)) was 120% Above Control. The “Total Neurite Length (% Above Control)” value ([3]; 10 (unit uncertain)) was 178% Above Control, the “Total Neurite Length (% Above Control)” value ([4]; 10 nM) was 2% Above Control and the “Total Neurite Length (% Above Control)” value ([4]; 100 nM) was 7% Above Control. The “Total Neurite Length (% Above Control)” value ([4]; 1 (unit uncertain)) was 21% Above Control and the “Total Neurite Length (% Above Control)” value ([4]; 10 (unit uncertain)) was 44% Above Control.

`C[n+]1ccc(-c2ccccc2)cc1` [MPP^+, 1-methyl-4-phenylpyridinium, reference compound] was tested, and the “3H-DOPAMINE UPTAKE (% UNTREATED CONTROL)” value ([1]; 10 μM MPP+ for 1 hour, no test compound) was 40% UNTREATED CONTROL.

B1: glial cell line-derived neurotrophic factor (protein, UniProt P39905 78-211, looked up)
Glial cell line-derived …: SPDKQMAVLPRRERNRQAAAANPENSRGKGRRGQRGKNRGCVLTAIHLNVTDLGLGYETKEELIFRYCSGSCDAAETTYDKILKNLSRNRRLVSDKVGQACCRPIAFDDDLSFLDDNLVYHILRKHSAKRCGCI
notes: glial cell line-derived neurotrophic factor, gives maximum protection in the dopamine uptake assay
B1 was tested, and the “maximum protection (% uptake)” value ([1]; 10 ng/mL GDNF, MPP+-induced neurotoxicity) was 84 % uptake.
